Reference: US6902915B2, “Heat-stable D-aminoacylase” (Daicel Chemical Industries, Ltd., priority 2000, dated 2005)
Entries after “also recorded” stand apart in the source; their conditions may differ.

Experiments:
[1] = system: D-aminoacylase derived from Streptomyces thermonitrificans; test: Effect of inhibitors against D-aminoacylase; format: biochemical; conditions: for Effect on enzyme activity (in words): SH reagents, 1 mM
Method: (§1) The measurement of the enzyme activity was proceeded according to the TNBS method (Tokuyama, S., Hatano, K., and Takahashi, T., Biosci.Biotech.Biochem. 58:24(1994)). That is, the sample containing the amino acid was added to 0.5 ml of solution (C) (0.1 M Na2B4O7) to give a total volume of 1.0 ml. […] of 0.11 M TNBS solution was added with stirring immediately. The absorbance at 420 nm was measured after 5 minutes.
(§2) Various metal salt and various enzyme inhibitors were added to a concentration of 1 mM to the enzyme reaction, and measurement of the enzyme reaction was performed. The enzyme reaction was conducted in 50 mM Tris/HCl (pH 7.5) buffer (total volume of 500 μl). For the metal salt added reaction, 1 mM of each metal salt or EDTA was added to the standard reaction composition solution without the enzyme and was preincubated at 30° C. for 5 minutes, then enzyme was added to react at 30° C. for 60 minutes. For the enzyme inhibitor added reaction, the standard reaction solution without the substrate was preincubated at 5 minutes, then after adding 1 mM of each inhibitor […] the substrate was added, and the enzyme reaction was performed at 30° C. for 100 minutes. The relative activity was calculated taking activity of enzyme actions without addition of inhibitors as 100%.

[2] = system: D-aminoacylase derived from Streptomyces thermonitrificans; test: Effect of metal salt for D-aminoacylase; format: biochemical; conditions: for Effect on enzyme activity (in words): 1 mM metal ion or EDTA
Method: as §1, §2

[3] = in vivo; cited from earlier work
[4] = system: D-aminoacylase derived from Streptomyces thermonitrificans; test: Substrate specificity of D-aminoacylase; format: biochemical; conditions: for Catalysis of the reaction with the substrate (in words): N-acetyl amino acid substrates; for Activity / Relative activity: substrate 20 mM; for Activity: 1 mM cobalt chloride, 50 mM Tris/HCl pH 7.5, 30° C., 60 minutes; for Relative activity: activity against N-acetyl-D-methionine taken as 100%
Method: The activity of the D-aminoacylase of the present invention can be tested by the following procedure. For example, an enzyme solution (100 μl) is mixed and incubated with 50 mM Tris-HCl (pH 7.5) buffer (total volume: 500 μl) containing 20 mM substrate (various N-acetyl-D-amino acids) at 30° C. for 60 minutes. By measuring the amounts of amino acid synthesized by this reaction, enzymatic activities for respective substrates can be compared with each other. Assay for amino acid is performed by the TNBS (trinitrobenzenesulfonic acid) method or the HPLC method.
as §1
D-methionine was measured colorimetrically using L-methionine as a standard, and the amount of enzyme-producing 1 μmol of D-methionine in 1 minute at 30° C. was determined 1 unit.
The substrate specificity of the enzyme of the present invention was compared taking the enzyme activity against N-acetyl-D-methionine as 100%. N-acetyl-D-valine, N-acetyl-D-phenylalanine, N-acetyl-D-leucine, N-acetyl-D-tryptophan, N-acetvl-D-alanine N-acetyl-L-methionine, N-acetyl-L-leucine, and N-acetyl-L-valine was used as the substrate for comparison. The enzyme activity was measured in a standard reaction solution (total volume of 500 μl containing 100 μl of enzyme solution, and 400 μl of 50 mM Tris/HCl (pH 7.5) containing 20 mM of each substrate and 1 mM cobalt chloride at 30° C. for 60 minutes. The substrate specificity for N-acetyls of D-methionine, D-leucine, D-valine, D-tryptophan, D-alanine and D-phenylalanine is depicted in Table 2.

[5] = 1 mM reagent, 50 mM Tris/HCl pH 7.5, 30° C., 100 minutes
[6] = 1 mM reagent, no addition = 100%
[7] = 1 mM metal salt or EDTA, 50 mM Tris/HCl pH 7.5, 30° C., 60 minutes
[8] = 1 mM metal salt or EDTA, no addition = 100%

`O=C(NNc1ccccc1)NNc1ccccc1` [1,5-Diphenylcarbonylhydrazide] gave an Activity [1, 5] of 40.5 mU/ml and a Relative activity [1, 6] of 89%.
Work on `c1ccc(-c2ccccn2)nc1` [2,2′-Bipyridyl] yielded an Activity [1, 5] of 21.9 mU/ml and a Relative activity [1, 6] of 49%.
For `O=S(=O)([O-])[O-].O=S(=O)([O-])[O-].O=S(=O)([O-])[O-].[Al+3].[Al+3]` [Al2(SO4)2], the Activity [2, 7] was 25.2 mU/ml and the Relative activity [2, 8] was 90%.
In the case of `[Ba+2].[Cl-].[Cl-]` [BaCl2], the Activity [2, 7] is reported as 30.6 mU/ml and the Relative activity [2, 8] is reported as 95%.
For `[Ca+2].[Cl-].[Cl-]` [CaCl2], the Activity [2, 7] was 31.1 mU/ml and the Relative activity [2, 8] was 97%.
For `[Cl][Co][Cl]` [CoCl2, cobalt chloride], the “Effect on enzyme activity (in words)” value [2] was “increased”, the Activity [2, 7] was 54.4 mU/ml and the Relative activity [2, 8] was 168%.
In the case of `[Cl][Cu][Cl]` [CuCl2], the “Effect on enzyme activity (in words)” value [2] is reported as “markedly inhibited”, the Activity [2, 7] is reported as 1.0 mU/ml and the Relative activity [2, 8] is reported as 3%.
In the case of `O=C1CCC(N2C(=O)c3ccccc3C2=O)C(=O)N1` [D(R)-form thalidomide, thalidomide], the Teratogenic activity [3] is given as “no teratogenic activity”.
Molecule `O[C@@H](CS)[C@@H](O)CS` [DTT] has an Activity [1, 5] of 34.8 mU/ml and a Relative activity [1, 6] of 76%.
With `O=C(O)CN(CCN(CC(=O)O)CC(=O)O)CC(=O)O` [EDTA] the “Effect on enzyme activity (in words)” value [2] was “inhibited”, the Activity [2, 7] was 9.4 mU/ml and the Relative activity [2, 8] was 29%.
Molecule `[Cl][Fe][Cl]` [FeCl2] has an Activity [2, 7] of 20.4 mU/ml and a Relative activity [2, 8] of 63%.
Molecule `[Cl][Fe]([Cl])[Cl]` [FeCl3] has an Activity [2, 7] of 22.0 mU/ml and a Relative activity [2, 8] of 68%.
Work on `NO` [Hydroxylammonium chloride] yielded a Relative activity [1] of 102% and an Activity [1, 5] of 46.5 mU/ml.
In the case of `[Cl-].[K+]` [KCl], the Activity [2, 7] is reported as 30.9 mU/ml and the Relative activity [2, 8] is reported as 93%.
With `[I-].[K+]` [KI] the Activity [1, 5] was 11.3 mU/ml and the Relative activity [1, 6] was 24%.
In the case of `O=C1CCC(N2C(=O)c3ccccc3C2=O)C(=O)N1` [L(S)-form, thalidomide], the Teratogenic activity [3] is listed as “strong teratogenicity”.
`[Cl-].[Cl-].[Mg+2]` [MgCl2] showed an Activity [2, 7] of 35.2 mU/ml and a Relative activity [2, 8] of 109%.
`[Cl][Mn][Cl]` [MnCl2] showed an Activity [2, 7] of 21.0 mU/ml and a Relative activity [2, 8] of 65%.
In the case of `O=C(O)CI` [Monoiodoacetic acid], the Relative activity [1] is reported as 84% and the Activity ([1]; pH 7.5) is reported as 37.9 mU/ml.
For `CC(=O)N[C@H](C)C(=O)O` [N-Ac-D-Ala, N-acetyl-D-alanine], the “Catalysis of the reaction with the substrate (in words)” value (shortened to “Catalysis of the reaction”) [4] was “catalyzes; also recorded: catalytic actions”, the Activity [4] was 16.9 mU/ml and the Relative activity [4] was 40%.
In the case of `CC(=O)N[C@H](CC(C)C)C(=O)O` [N-Ac-D-Leu, N-acetyl-D-leucine], the “Catalysis of the reaction” value [4] is reported as “catalyzes; also recorded: catalytic actions”, the Activity [4] is reported as 8.93 mU/ml and the Relative activity [4] is reported as 21%.
In the case of `CSCC[C@@H](NC(C)=O)C(=O)O` [N-Ac-D-Met, N-acetyl-D-methionine], the “Catalysis of the reaction” value [4] is reported as “efficiently catalyzes; also recorded: catalyze especially well”, the Activity [4] is reported as 40.6 mU/ml and the Relative activity [4] is reported as 100%.
In the case of `CC(=O)N[C@H](Cc1ccccc1)C(=O)O` [N-Ac-D-Phe, N-acetyl-D-phenylalanine], the “Catalysis of the reaction” value [4] is reported as “efficiently catalyzes; also recorded: catalyze especially well”, the Activity [4] is reported as 62.2 mU/ml and the Relative activity [4] is reported as 144%.
For `CC(=O)N[C@H](Cc1c[nH]c2ccccc12)C(=O)O` [N-Ac-D-Trp, N-acetyl-D-tryptophan], the “Catalysis of the reaction” value [4] was “efficiently catalyzes; also recorded: catalyze especially well”, the Activity [4] was 48.4 mU/ml and the Relative activity [4] was 105%.
With `CC(=O)N[C@@H](C(=O)O)C(C)C` [N-Ac-D-Val, N-acetyl-D-valine] the “Catalysis of the reaction” value [4] was “catalyzes; also recorded: catalytic actions”, the Activity [4] was 14.7 mU/ml and the Relative activity [4] was 40%.
In the case of `CSCC[C@H](NC(C)=O)C(=O)O` [N-Ac-L-Met, N-acetyl-L-methionine], the “Catalysis of the reaction” value [4] is reported as “didn't catalyze; also recorded: substantially no catalytic activity”, the Activity [4] is reported as 0 mU/ml and the Relative activity [4] is reported as 0%.
In the case of `CC(=O)N[C@@H](Cc1ccccc1)C(=O)O` [N-Ac-L-Phe, N-acetyl-L-phenylalanine], the “Catalysis of the reaction” value [4] is reported as “didn't catalyze; also recorded: substantially no catalytic activity”, the Activity [4] is reported as 0 mU/ml and the Relative activity [4] is reported as 0%.
In the case of `CC(=O)N[C@H](C(=O)O)C(C)C` [N-Ac-L-Val, N-acetyl-L-valine], the “Catalysis of the reaction” value [4] is reported as “didn't catalyze; also recorded: substantially no catalytic activity”, the Activity [4] is reported as 0 mU/ml and the Relative activity [4] is reported as 0%.
For `CCN1C(=O)C=CC1=O` [N-Ethylmaleimide], the Activity [1, 5] was 1.3 mU/ml, the Relative activity [1, 6] was 3% and the “Effect on enzyme activity (in words)” value [1] was “inhibited”.
For `[Cl-].[Na+]` [NaCl], the Relative activity [2] was 103% and the Activity ([2]; pH 7.5) was 33.1 mU/ml.
In the case of `[F-].[Na+]` [NaF], the Activity [1, 5] is reported as 45.2 mU/ml and the Relative activity [1, 6] is reported as 99%.
With `[Cl][Ni][Cl]` [NiCl2] the Activity [2, 7] was 15.9 mU/ml and the Relative activity [2, 8] was 51%.
`O=S(=O)(F)Cc1ccccc1` [Phenylmethylsulfonyl fluoride] showed an Activity [1, 5] of 29.5 mU/ml and a Relative activity [1, 6] of 70%.
Work on `[Cl][Sn][Cl]` [SnCl2] yielded an Activity [2, 7] of 32.8 mU/ml and a Relative activity [2, 8] of 102%.
Molecule `[Cl-].[Cl-].[Zn+2]` [ZnCl2] has an Activity [2, 7] of 22.2 mU/ml and a Relative activity [2, 8] of 68%.
For `O=C(O)c1cc[c]([Hg][Cl])cc1` [p-Chloromercuribenzoic acid], the Activity [1, 5] was 2.1 mU/ml, the Relative activity [1, 6] was 4% and the “Effect on enzyme activity (in words)” value [1] was “inhibited”.
